Entries after “also recorded” stand apart in the source; their conditions may differ. Like-named read-outs stand apart in the source and are kept apart here.
Assays:
[1] = tested on: hemorrhagic activity of B. anthracis culture supernatant (BACS); set-up: species or system B. anthracis (delta Ames); settings: in vivo, sc
B. anthracis (Sterne) = tested on: B. anthracis (Sterne); set-up: species or system Bacillus anthracis; settings: in vivo
[2] = tested on: BACS proteolytic activity; type: biochemical, B. anthracis
[3] = mouse, in vivo

For `O=C(O)CN(CCN(CC(=O)O)CC(=O)O)CC(=O)O` [EDTA, ethylenediaminetetraacetic acid], which “suppression of hemorrhagic effect of BACS” value (“suppression” below) [1] is on record?
Its value is “effectively abrogated”.

Which “effect on survival / protection” value (B. anthracis (Sterne)) does the source give for `CC[C@@H](C)[C@@H](O)[C@H](C)C(=O)[C@H](C)/C=C(\C)C[C@H](C)[C@@H]1OC(=O)[C@H]1CC` [ebelactone B] here?
Its value is “did not increase survival over the effects of doxycycline alone”.

For `C[C@H]1c2cccc(O)c2C(=O)C2=C(O)[C@]3(O)C(=O)C(C(N)=O)=C(O)[C@@H](N(C)C)[C@@H]3[C@@H](O)[C@@H]21` [doxycycline], which survival (B. anthracis (Sterne); ip) is on record?
The survival was 30%.

With `CC(C)C[C@H](NP(=O)(O)O[C@@H]1O[C@@H](C)[C@H](O)[C@@H](O)[C@H]1O)C(=O)N[C@@H](Cc1c[nH]c2ccccc12)C(=O)O` [phosphoramidon] as the molecule, how does the “suppression” value [1] read?
Its value is “effective; also recorded: effectively abrogated”.

And the “inhibition of hydrolysis of gelatin and casein by BACS” value [2]?
The value was “inhibited”.

Which results are given for `O=C(O)c1cn(C2CC2)c2cc(N3CCNCC3)c(F)cc2c1=O` [ciprofloxacin]?
effectiveness of treatment (B. anthracis (Sterne)): ineffective; survival (B. anthracis (Sterne)): 20%; survival (effectiveness) (B. anthracis (Sterne)): 70%; survival (B. anthracis (Sterne); ip): 20%

Which “inhibition of hydrolysis of gelatin and casein by BACS” value [2] does the source give for `c1cnc2c(c1)ccc1cccnc12` [phenanthroline, 1,10-phenanthroline] here?
The value was “inhibited”.

B1: SBTI (protein, UniProt P01070 25-205, looked up)
Trypsin inhibitor A: DFVLDNEGNPLENGGTYYILSDITAFGGIRAAPTGNERCPLTVVQSRNELDKGIGTIISSPYRIRFIAEGHPLSLKFDSFAVIMLCVGIPTEWSVVEDLPEGPAVKIGENKDAMDGWFRLERVSDDEFNNYKLVFCPQQAEDDKCGDIGISIDHDDGTRRLVVSKNKPLVVQFQKLDKESL
For B1, which “suppression” value [1] is on record?
The value was “effectively abrogated”.

B2: thermolysin: thermolysin (EC 3.4.24.27) from Bacillus thermoproteolyticus (protein, UniProt P00800 233-548, looked up)
Thermolysin: ITGTSTVGVGRGVLGDQKNINTTYSTYYYLQDNTRGNGIFTYDAKYRTTLPGSLWADADNQFFASYDAPAVDAHYYAGVTYDYYKNVHNRLSYDGNNAAIRSSVHYSQGYNNAFWNGSQMVYGDGDGQTFIPLSGGIDVVAHELTHAVTDYTAGLIYQNESGAINEAISDIFGTLVEFYANKNPDWEIGEDVYTPGISGDSLRSMSDPAKYGDPDHYSKRYTGTQDNGGVHINSGIINKAAYLISQGGTHYGVSVVGIGRDKLGKIFYRALTQYLTPTSNFSQLRAAAVQSATDLYGSTSQEVASVKQAFDAVGVK
For B2, which “dose range in which hemorrhagic activity was detectable” value [3] is on record?
The value was 10 to 100 µg.
